Assay results taken from article PMC10208570, “Peptidomimetic antibiotics disrupt the lipopolysaccharide transport bridge of drug-resistant Enterobacteriaceae” (Science Advances, 2023).
Where a SMILES comes first, the peptide text is derived from it. Bridges are numbered along the chain shown (N, C = ends). [ ]: non-standard residue; d: D form. Hyp = O=C(O)[C@@H]1C[C@@H](O)CN1; Pen = CC(C)(S)[C@H](N)C(=O)O; dDab = NCC[C@@H](N)C(=O)O; Dab = NCC[C@H](N)C(=O)O

Tests used:
[1] = system: E. coli ATCC 25922 (parent / WT); assay: microbe, parasite or virus in culture
Description: (§1) MIC assays [Clinical and Laboratory Standards Institute (CLSI) methodology] and serial passage studies were performed as described by Luther et al. ([6]). […] Resistant mutants were isolated, and their MIC values were determined and sent to Microbes NG (Birmingham, United Kingdom) for whole-genome sequencing and bioinformatic analysis.

[2] = system: E. coli ATCC 25922 LptA Q62L mutant; assay: microbe, parasite or virus in culture; settings: for MIC E. coli ATCC 25922 Q62L mutant: CLSI method, clone harboring LptA Q62L
Description: as §1

[3] = system: Escherichia coli ATCC 25922 KdsD mutant; assay: microbe, parasite or virus in culture; settings: Table S9 panel; other mutation
Description: as §1

[4] = system: Escherichia coli ATCC 25922 LptA E84D mutant; assay: microbe, parasite or virus in culture; settings: Table S9 panel
Description: as §1

[5] = system: K. pneumoniae ATCC 43816 (parent / WT); assay: microbe, parasite or virus in culture
Description: as §1

[6] = system: K. pneumoniae ATCC 43816 LptA Q62L mutant; assay: microbe, parasite or virus in culture
Description: as §1

[7] = system: K. pneumoniae NCTC 13443 (NDM-1) (parent / WT); assay: microbe, parasite or virus in culture
Description: as §1

[8] = system: K. pneumoniae NCTC 13443 (NDM-1) LptA Q62L mutant; assay: microbe, parasite or virus in culture; settings: for MIC K. pneumoniae NCTC 13443 (NDM-1) Q62L mutant: CLSI method, clone harboring LptA Q62L
Description: as §1

[9] = system: Klebsiella pneumoniae ATCC 43816 LapB mutant; assay: microbe, parasite or virus in culture; settings: Table S9 panel; other mutation
Description: as §1

[10] = system: Klebsiella pneumoniae ATCC 43816 LptA I36N mutant; assay: microbe, parasite or virus in culture; settings: Table S9 panel
Description: as §1

[11] = system: Klebsiella pneumoniae ATCC 43816 LptA I36S mutant; assay: microbe, parasite or virus in culture; settings: Table S9 panel
Description: as §1

[12] = system: Klebsiella pneumoniae ATCC 43816 LptA L116Q mutant; assay: microbe, parasite or virus in culture; settings: Table S9 panel
Description: as §1

[13] = system: Klebsiella pneumoniae ATCC 43816 PglJ, PhnJ, ThiH mutant; assay: microbe, parasite or virus in culture; settings: Table S9 panel; other mutation
Description: as §1

[14] = system: Klebsiella pneumoniae NCTC 13443 LptA I36S mutant; assay: microbe, parasite or virus in culture; settings: Table S9 panel
Description: as §1

[15] = system: Klebsiella pneumoniae NCTC 13443 LpxC, LpxD mutant; assay: microbe, parasite or virus in culture; settings: Table S9 panel; other mutation
Description: as §1

[16] = system: Klebsiella pneumoniae NCTC 13443 YejM mutant; assay: microbe, parasite or virus in culture; settings: Table S9 panel; other mutation
Description: as §1

[17] = system: K. pneumoniae 968733 (CST-R); assay: MIC assay (CLSI); format: cell-based, Klebsiella pneumoniae; settings: CLSI method; colistin-resistant strain
Description: as §1

[18] = system: panel of 121 Enterobacteriaceae including CRE, MDR, and XDR isolates; assay: organism not typed; settings: CLSI microdilution method; 121 isolates
Description: as §1

[19] = system: Enterobacteriaceae (CS, Col-S) (n=22); format: cell-based; settings: CLSI microdilution; minimum and maximum MIC of the panel; carbapenem sensitive, colistin sensitive
Description: as §1

E. coli = format: cell-based, Escherichia coli; settings: serial passage in broth at sub-MIC and multiples of the MIC
Description: as §1
(§2) Fig. S8. Resistance development studies by serial passage. Broth containing a single antibiotic at sub-MIC and multiples of the MIC were inoculated with bacteria. Drug concentrations were […]
(§3) day 1 and 2 of passaging.
(§4) (1 picture or pasted object on this page, not shown here)

K. pneumoniae = format: cell-based, Klebsiella pneumoniae; settings: serial passage in broth at sub-MIC and multiples of the MIC
Description: as §1, §2, §3, §4

human red blood cells = assay: Haemolysis; format: cell-based; settings: PBS-washed human red blood cells; 1 h at 200 mg/liter, 37°C; OD 540 nm; versus 100% lysis control 2.5% Triton X-100; biological replicates
Description: To test their hemolytic potential, compounds were incubated in the presence of phosphate-buffered saline (PBS)–washed human red blood cells. After 1-hour incubation at 200 mg/liter and 37°C, the samples were centrifuged (3220g), the supernatants were diluted in Dulbecco’s PBS, and optical density at 540 nm was determined. The hemolysis induced by the compound was calculated versus a 100% lysis control prepared with 2.5% Triton X-100 (table S4A).

in vitro = format: cell-based; settings: human
Description: The cytotoxicity of compounds was determined by determining the number of viable cells using the Sigma Cell Counting Kit-8 (WST-8). HeLa cells were incubated at 37°C and 5% CO2 for 24 hours, after which the medium was replaced with fresh medium containing dilutions of compounds. […]

Plasma protein binding [20] = format: in vitro ADME, human; settings: human, plasma, pH 7.5
Description: (§5) After ultrafiltration, protein binding was determined by subtracting the percentage of compound in ultrafiltrate from the total amount of compound in spiked plasma (table S4A).

Plasma protein binding [21] = format: in vitro ADME, mouse; settings: mouse, plasma, pH 7.5
Description: as §5

## Colistin
[1]; Table S9 panel, WT
  MIC Escherichia coli ATCC 25922 WT: 0.25 µg/mL
[2]
  MIC E. coli ATCC 25922 Q62L mutant: 0.25 micrograms per milliliter
[2]; Table S9 panel
  MIC Escherichia coli ATCC 25922 LptA Q62L (7x): 0.13 µg/mL
[3]
  MIC Escherichia coli ATCC 25922 KdsD (2x): 0.25 µg/mL
[4]
  MIC Escherichia coli ATCC 25922 LptA E84D (1x): 0.25 µg/mL
[5]; CLSI method, parent strain
  MIC K. pneumoniae ATCC 43816 Parent: 0.125 micrograms per milliliter
[5]; Table S9 panel, WT
  MIC Klebsiella pneumoniae ATCC 43816 WT: 0.13 µg/mL
[6]; CLSI method, clone harboring LptA Q62L
  MIC K. pneumoniae ATCC 43816 Q62L mutant: 0.125 micrograms per milliliter
[6]; Table S9 panel
  MIC Klebsiella pneumoniae ATCC 43816 LptA Q62L (4x): 0.13 µg/mL
[7]; Table S9 panel, WT
  MIC Klebsiella pneumoniae NCTC 13443 WT: 0.25 µg/mL
[8]
  MIC K. pneumoniae NCTC 13443 (NDM-1) Q62L mutant: 0.125 micrograms per milliliter
[8]; Table S9 panel
  MIC Klebsiella pneumoniae NCTC 13443 LptA Q62L (5x): 0.13 µg/mL
[9]
  MIC Klebsiella pneumoniae ATCC 43816 LapB (1x): 0.13 µg/mL
[10]
  MIC Klebsiella pneumoniae ATCC 43816 LptA I36N (1x): ≤ 0.06 µg/mL
[11]
  MIC Klebsiella pneumoniae ATCC 43816 LptA I36S (1x): 0.13 µg/mL
[12]
  MIC Klebsiella pneumoniae ATCC 43816 LptA L116Q (1x): 0.13 µg/mL
[13]
  MIC Klebsiella pneumoniae ATCC 43816 PglJ, PhnJ, ThiH (1x): 0.13 µg/mL
[14]
  MIC Klebsiella pneumoniae NCTC 13443 LptA I36S (2x): 0.13 µg/mL
[15]
  MIC Klebsiella pneumoniae NCTC 13443 LpxC, LpxD (1x): 0.25 µg/mL
[16]
  MIC Klebsiella pneumoniae NCTC 13443 YejM (1x): 0.25 µg/mL
[17]
  MIC K. pneumoniae 968733 (CST-R) Parent: >8 micrograms per milliliter
[18]
  MIC50 (n=121): 0.13 µg/mL
  MIC90 (n=121): > 8 µg/mL
[19]
  MIC range Enterobacteriaceae (CS, Col-S) (n=22): 0.06 to 0.5 µg/mL
E. coli
  Development of resistance, day of passaging, E. coli: 5 to 7 days
K. pneumoniae
  Development of resistance, day of passaging, K. pneumoniae: 1 to 3 days

## CC[C@H](C)[C@H](NC(=O)[C@@H](NC(=O)[C@@H]1C[C@@H](O)CN1C(=O)[C@@H](N)C(C)C)[C@@H](C)CC)C(=O)N[C@@H](Cc1ccc(O)cc1)C(=O)N[C@@H]1C(=O)N[C@@H](CC(N)=O)C(=O)N[C@@H](CCCNC(=N)N)C(=O)N[C@@H](CCN)C(=O)N[C@@H]([C@@H](C)O)C(=O)N[C@H](CCN)C(=O)N[C@@H](CCCCN)C(=O)N[C@H](C(=O)N[C@@H](CCN)C(=O)N[C@@H](CCCNC(=N)N)C(=O)N[C@@H](Cc2ccc(O)cc2)C(=O)O)CSSC1(C)C [Compound 4] (H-V[Hyp]IIY[Pen]NR[Dab]T[dDab]KC[Dab]RY-OH; disulfide 6-13)
[1]; CLSI method, parent strain
  MIC E. coli ATCC 25922 Parent: 0.063 micrograms per milliliter
[2]
  MIC E. coli ATCC 25922 Q62L mutant: 0.25 micrograms per milliliter
[5]; ATCC 43816
  MIC K. pneumoniae ATCC 43816 Parent: 0.25 micrograms per milliliter
[7]; CLSI method, parent strain
  MIC K. pneumoniae NCTC 13443 (NDM-1) Parent: 1 micrograms per milliliter
[8]
  MIC K. pneumoniae NCTC 13443 (NDM-1) Q62L mutant: 4 micrograms per milliliter
Human red blood cells
  Haemolysis % at 0.2 g/L: 0%
In vitro
  IC50 at 48 h: 536 µM
Plasma protein binding [20]
  fraction unbound at 30 min, 10 mg/liter: 0.09
Plasma protein binding [21]
  fraction unbound at 30 min, 10 mg/liter: 0.14
